Experiments:
[1] = test system: recombinant NL4-3 virus (nef section replaced with Renilla luciferase gene) in MT-2 cells; experiment: HIV cell culture assay (antiviral activity, luciferase readout); type: cell-based; conditions: Renilla, NL43, MT-2 cells infected for 4-5 days with recombinant NL4-3 Renilla luciferase virus
In short: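 The reporter virus was produced by transfecting 293T cells with the NL4-3 nef/Renilla luciferase proviral clone. MT-2 cells were infected for 4–5 days with serial compound dilutions present. Luciferase was read with a live-cell substrate, and EC50 came from the exponential median-effect equation.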

[2] = Compound cytotoxicity, XTT-based colorimetric assay; type: cell-based; conditions: human; uninfected MT2 cells, day 4, XTT; read-out: CC50
In short: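 Follows the antiviral assay procedure, but with uninfected MT2 cells. On day 4, cell viability is measured by XTT-based colorimetry, giving CC50 values.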

Row | SMILES | EC50 [1] | CC50 at 4 days [2]
1 | Cc1cc(C2(F)CCC(F)(F)CC2)nc2nc([C@H](Cc3cc(F)cc(F)c3)NC(=O)Cn3nc(C(F)F)c4c3C(F)(F)[C@@H]3C[C@H]43)n(-c3ccc(Cl)c4c(NS(C)(=O)=O)nn(CCN5C[C@H](F)C[C@H](F)C5)c34)c(=O)c12 (atropisomer, axis not shown; (P)) [Example 11, N-[(1S)-1-[(3P)-3-(4-chloro-1-{2-[(3R,5S)-3,5-difluoropiperidin-1-yl]ethyl}-3-methanesulfonamido-1H-indazol-7-yl)-5-methyl-4-oxo-7-(1,4,4-trifluorocyclohexyl)-3H,4H-pyrido[2,3-d]pyrimidin-2-yl]-2-(3,5-difluorophenyl)ethyl]-2-[(2S,4R)-9-(difluoromethyl)-5,5-difluoro-7,8-diazatricyclo[4.3.0.0^2,4]nona-1(6),8-dien-7-yl]acetamide] | 0.009 nM | > 20000 nM
2 | Cc1cc(C2CCC(F)(F)CC2)nc2nc([C@H](Cc3cc(F)cc(F)c3)NC(=O)Cn3nc(C4CC4)c4c3C[C@@H]3C[C@H]43)n(-c3ccc(Cl)c4c(NS(C)(=O)=O)nn(CCN5CC(C)(C)OC(C)(C)C5)c34)c(=O)c12 (atropisomer, axis not shown; (P)) [Example 13, N-[(1S)-1-[(3P)-3-{4-chloro-3-methanesulfonamido-1-[2-(2,2,6,6-tetramethylmorpholin-4-yl)ethyl]-1H-indazol-7-yl}-7-(4,4-difluorocyclohexyl)-5-methyl-4-oxo-3H,4H-pyrido[2,3-d]pyrimidin-2-yl]-2-(3,5-difluorophenyl)ethyl]-2-[(2S,4S)-9-cyclopropyl-7,8-diazatricyclo[4.3.0.0^2,4]nona-1(6),8-dien-7-yl]acetamide] | 0.011 nM | > 20000 nM
3 | Cc1cc(C2(F)CCC(F)(F)CC2)nc2nc([C@H](Cc3cc(F)cc(F)c3)NC(=O)Cn3nc(C4CC4)c4c3C[C@@H]3C[C@H]43)n(-c3ccc(Cl)c4c(NS(C)(=O)=O)nn(C[C@H](C)N5C[C@@H](C)O[C@@H](C)C5)c34)c(=O)c12 (relative stereo) [Example 722, N-[(1S)-1-[(3P)-3-{4-chloro-1-[(2S)-2-[(2R,6S)-2,6-dimethylmorpholin-4-yl]propyl]-3-methanesulfonamido-1H-indazol-7-yl}-5-methyl-4-oxo-7-(1,4,4-trifluorocyclohexyl)-3H,4H-pyrido[2,3-d]pyrimidin-2-yl]-2-(3,5-difluorophenyl)ethyl]-2-[(2R*,4R*)-9-cyclopropyl-7,8-diazatricyclo[4.3.0.0^2,^4]nona-1(6),8-dien-7-yl]acetamide] | 0.007 nM | > 20 nM
4 | Cc1cc(C2(F)CCC(F)(F)CC2)nc2nc([C@H](Cc3cc(F)cc(F)c3)NC(=O)Cn3nc(C(F)F)c4c3C(F)(F)[C@@H]3C[C@H]43)n(-c3ccc(Cl)c4c(NS(C)(=O)=O)nn(C[C@H](C)N5CC(C)(C)OC(C)(C)C5)c34)c(=O)c12 (atropisomer, axis not shown; (P)) [Example 717, N-[(1S)-1-[(3P)-3-{4-chloro-3-methanesulfonamido-1-[(2S)-2-(2,2,6,6-tetramethylmorpholin-4-yl)propyl]-1H-indazol-7-yl}-5-methyl-4-oxo-7-(1,4,4-trifluorocyclohexyl)-3H,4H-pyrido[2,3-d]pyrimidin-2-yl]-2-(3,5-difluorophenyl)ethyl]-2-[(2S,4R)-9-(difluoromethyl)-5,5-difluoro-7,8-diazatricyclo[4.3.0.0^2,^4]nona-1(6),8-dien-7-yl]acetamide] | 0.032 nM | > 20 nM
5 | Cc1cc(C2(F)CCC(F)(F)CC2)nc2nc([C@H](Cc3cc(F)cc(F)c3)NC(=O)Cn3nc(C4CC4)c4c3C[C@@H]3C[C@H]43)n(-c3ccc(Cl)c4c(NS(C)(=O)=O)nn(CCN5C[C@H](F)C[C@H](F)C5)c34)c(=O)c12 (atropisomer, axis not shown; (P)) [Example 12, N-[(1S)-1-[(3P)-3-(4-chloro-1-{2-[(3R,5S)-3,5-difluoropiperidin-1-yl]ethyl}-3-methanesulfonamido-1H-indazol-7-yl)-5-methyl-4-oxo-7-(1,4,4-trifluorocyclohexyl)-3H,4H-pyrido[2,3-d]pyrimidin-2-yl]-2-(3,5-difluorophenyl)ethyl]-2-[(2S,4S)-9-cyclopropyl-7,8-diazatricyclo[4.3.0.0^2,4]nona-1(6),8-dien-7-yl]acetamide] | 0.012 nM | > 20000 nM
6 | Cc1cc(C2CCC(F)(F)CC2)nc2nc([C@H](Cc3cc(F)cc(F)c3)NC(=O)Cn3nc(C(F)F)c4c3C(F)(F)[C@@H]3C[C@H]43)n(-c3ccc(Cl)c4c(NS(C)(=O)=O)nn(CCN5CC(C(F)F)C5)c34)c(=O)c12 (atropisomer, axis not shown; (P)) [Example 268, N-[(1S)-1-[(3P)-3-(4-chloro-1-{2-[3-(difluoromethyl)azetidin-1-yl]ethyl}-3-methanesulfonamido-1H-indazol-7-yl)-7-(4,4-difluorocyclohexyl)-5-methyl-4-oxo-3H,4H-pyrido[2,3-d]pyrimidin-2-yl]-2-(3,5-difluorophenyl)ethyl]-2-[(2S,4R)-9-(difluoromethyl)-5,5-difluoro-7,8-diazatricyclo[4.3.0.0^2,^4]nona-1(6),8-dien-7-yl]acetamide] | 0.015 nM | > 50 nM
7 | CS(=O)(=O)Nc1nn(CCN2CCC(F)(F)C2)c2c(-n3c([C@H](Cc4cc(F)cc(F)c4)NC(=O)Cn4nc(C5CC5)c5c4C[C@@H]4C[C@H]54)nc4nc(C5CCC(F)(F)CC5)ccc4c3=O)ccc(Cl)c12 (atropisomer, axis not shown; (P)) [Example 24, N-[(1S)-1-[(3P)-3-{4-chloro-1-[2-(3,3-difluoropyrrolidin-1-yl)ethyl]-3-methanesulfonamido-1H-indazol-7-yl}-7-(4,4-difluorocyclohexyl)-4-oxo-3H,4H-pyrido[2,3-d]pyrimidin-2-yl]-2-(3,5-difluorophenyl)ethyl]-2-[(2S,4S)-9-cyclopropyl-7,8-diazatricyclo[4.3.0.0^2,^4]nona-1(6),8-dien-7-yl]acetamide] | 0.007 nM | > 50 nM
8 | Cc1cc(C2CCC(F)(F)CC2)nc2nc([C@H](Cc3cc(F)cc(F)c3)NC(=O)Cn3nc(C4CC4)c4c3C[C@@H]3C[C@H]43)n(-c3ccc(Cl)c4c(NS(C)(=O)=O)nn(CCN5C[C@H]6C[C@@H]5CO6)c34)c(=O)c12 (atropisomer, axis not shown; (P)) [Example 9, N-[(1S)-1-[(3P)-3-(4-chloro-3-methanesulfonamido-1-{2-[(1R,4R)-2-oxa-5-azabicyclo[2.2.1]heptan-5-yl]ethyl}-1H-indazol-7-yl)-7-(4,4-difluorocyclohexyl)-5-methyl-4-oxo-3H,4H-pyrido[2,3-d]pyrimidin-2-yl]-2-(3,5-difluorophenyl)ethyl]-2-[(2S,4S)-9-cyclopropyl-7,8-diazatricyclo[4.3.0.0^2,^4]nona-1(6),8-dien-7-yl]acetamide] | 0.009 nM | > 50 nM
9 | CC1(C)CN(CCn2nc(NS(C)(=O)=O)c3c(Cl)ccc(-n4c([C@H](Cc5cc(F)cc(F)c5)NC(=O)Cn5nc(C(F)F)c6c5C(F)(F)[C@@H]5C[C@H]65)nc5nc(C6CCC(F)(F)CC6)ccc5c4=O)c32)CC(C(F)(F)F)O1 (stereo partly drawn) [Example 189] | 0.035 nM | > 50 nM
10 | Cc1cc(C2CCC(F)(F)CC2)nc2nc([C@H](Cc3cc(F)cc(F)c3)NC(=O)Cn3nc(C4CC4)c4c3C[C@@H]3C[C@H]43)n(-c3ccc(Cl)c4c(NS(C)(=O)=O)nn([C@H](C)CN5C[C@H](F)C[C@H](F)C5)c34)c(=O)c12 (relative stereo) [Example 732, N-[(1S)-1-[(3P)-3-{4-chloro-1-[(2R)-1-[(3R,5S)-3,5-difluoropiperidin-1-yl]propan-2-yl]-3-methanesulfonamido-1H-indazol-7-yl}-7-(4,4-difluorocyclohexyl)-5-methyl-4-oxo-3H,4H-pyrido[2,3-d]pyrimidin-2-yl]-2-(3,5-difluorophenyl)ethyl]-2-[(2R*,4R*)-9-cyclopropyl-7,8-diazatricyclo[4.3.0.0^2,^4]nona-1(6),8-dien-7-yl]acetamide] | 0.013 nM | > 20 nM
11 | COCCCn1nc(NS(C)(=O)=O)c2c(Cl)ccc(-n3c([C@H](Cc4cc(F)cc(F)c4)NC(=O)Cn4nc(C(F)F)c5c4C(F)(F)[C@@H]4C[C@H]54)nc4nc(C5CCC(F)(F)CC5)cc(NCCN5CCOC(C)(C)C5)c4c3=O)c21 (atropisomer, axis not shown; (P)) [Example 476, N-[(1S)-1-[(3P)-3-[4-chloro-3-methanesulfonamido-1-(3-methoxypropyl)-1H-indazol-7-yl]-7-(4,4-difluorocyclohexyl)-5-{[2-(2,2-dimethylmorpholin-4-yl)ethyl]amino}-4-oxo-3H,4H-pyrido[2,3-d]pyrimidin-2-yl]-2-(3,5-difluorophenyl)ethyl]-2-[(2S,4R)-9-(difluoromethyl)-5,5-difluoro-7,8-diazatricyclo[4.3.0.0^2,^4]nona-1(6),8-dien-7-yl]acetamide] | 0.005 nM | > 20 nM
12 | CCc1cc(C2CCC(F)(F)CC2)nc2nc([C@H](Cc3cc(F)cc(F)c3)NC(=O)Cn3nc(C(F)F)c4c3C[C@H]3C[C@@H]43)n(-c3ccc(Cl)c4c(NS(C)(=O)=O)nn(CCOC)c34)c(=O)c12 (relative stereo) [Example 636, N-[(1S)-1-[(3P)-3-[4-chloro-3-methanesulfonamido-1-(2-methoxyethyl)-1H-indazol-7-yl]-7-(4,4-difluorocyclohexyl)-5-ethyl-4-oxo-3H,4H-pyrido[2,3-d]pyrimidin-2-yl]-2-(3,5-difluorophenyl)ethyl]-2-[(2R*,4R*)-9-(difluoromethyl)-7,8-diazatricyclo[4.3.0.0^2,^4]nona-1(6),8-dien-7-yl]acetamide] | 0.015 nM | > 50 nM
